Where two headings read alike, the source gives them in different places.
Tests used:
[1] = test system: anti-nicotine antibodies; format: binding
[2] = five BSA digoxin immunised rabbits, cited from earlier work
[3] = liver, cited from earlier work
[4] = antibodies elicited by Nic-O-Su-Cholera Toxin B conjugates, relative to nicotine

Compound `CN1C(=O)C[C@@H](C(=O)O)[C@@H]1c1cccnc1` (relative stereo) [trans-4-cotininecarboxylic acid] has an immunologic cross-reactivity [1, 4] of 0.19%.
In the case of `C[C@H]1O[C@@H](O[C@H]2[C@@H](O)C[C@H](O[C@H]3[C@@H](O)C[C@H](O[C@H]4CC[C@@]5(C)[C@H](CC[C@@H]6[C@@H]5C[C@@H](O)[C@]5(C)[C@@H](C7=CC(=O)OC7)CC[C@]65O)C4)O[C@@H]3C)O[C@@H]2C)C[C@H](O)[C@@H]1O` [digoxin], the “mean serum concentration of digoxin” value ([2]; at one year) is listed as 85 nanogram/ml and the “mean serum concentration of digoxin” value ([2]; initially) is listed as 8200 nanogram/ml.
`CN1C(=O)CC[C@H]1c1cccnc1` [cotinine] showed an immunologic cross-reactivity [1, 4] of 1.1%.
In the case of `c1cncc([C@@H]2CCCN2)c1` [nornicotine], the immunologic cross-reactivity [1, 4] is reported as 4%.
Work on `O=C(O)c1cccnc1` [nicotinic acid] yielded an immunologic cross-reactivity [1] of 0.09%.
For `CN1CCCC1c1cccnc1` (centres unmarked) [nicotine], the “nicotine transformed to nicotine N'-oxide” value ([3]; flavin containing monooxygenase 3) is listed as 4-7% and the “nicotine glucuronidation, share of metabolized nicotine” value ([3]; uridine diphosphate-glucuronosyltransferase) is listed as 3-5%.

From patent US20060111271A1 (priority 2004, published 2006)
